Like-named read-outs stand apart in the source and are kept apart here.
Experiments:
NNMT (hNNMT) = molecular target: T1, NNMT (hNNMT) (Homo sapiens, UniProt P40261); parameters: Intact protein LC/MS covalent labelling, fragments in pools of five, 200 uM each, 4 °C; conditions: 24 h, 4 °C, pool of five; 200 µM; covalent
T1 construct: wild type, N-terminal His6 tag kept (no cleavage described), E. coli, construct 31248 Da
T1 sequence (P40261 1-264): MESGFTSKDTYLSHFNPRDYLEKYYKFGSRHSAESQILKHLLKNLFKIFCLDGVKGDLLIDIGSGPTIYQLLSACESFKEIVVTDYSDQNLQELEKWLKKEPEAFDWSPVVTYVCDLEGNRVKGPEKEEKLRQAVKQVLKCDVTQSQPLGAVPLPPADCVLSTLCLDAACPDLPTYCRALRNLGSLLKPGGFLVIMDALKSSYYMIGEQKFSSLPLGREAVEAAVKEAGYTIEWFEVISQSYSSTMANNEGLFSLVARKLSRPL

BSA = molecular target: T2, BSA (Bos taurus, UniProt P02769); parameters: Intact protein LC/MS covalent labelling, fragments in pools of five, 200 uM each, 4 °C; conditions: 24 h, 4 °C, pool of five; 200 µM; covalent
T2 construct: gene ALB

PCAF = molecular target: T3, PCAF (Homo sapiens, UniProt Q92831); parameters: Intact protein LC/MS covalent labelling, fragments in pools of five, 200 uM each, 4 °C; conditions: 24 h, 4 °C, pool of five; 200 µM; covalent
T3 construct: gene KAT2B

NUDT7 = molecular target: T4, NUDT7 (Homo sapiens, UniProt P0C024); parameters: Intact protein LC/MS covalent labelling, fragments in pools of five, 200 uM each, 4 °C; conditions: 24 h, 4 °C, pool of five; 200 µM; covalent
T4 construct: residues 14-235, E. coli, pNIC28-Bsa4, N-terminal His6 tag removed by TEV, construct 26672 Da

OTUB2 (OTUB2A) = molecular target: T5, OTUB2 (OTUB2A) (Homo sapiens, UniProt Q96DC9); parameters: Intact protein LC/MS covalent labelling, fragments in pools of five, 200 uM each, 4 °C; conditions: 24 h, 4 °C, pool of five; 200 µM; covalent
T5 construct: full length residues 1-234, E. coli BL21(DE3)-R3, His tag removed by TEV, construct 27312 Da
T5 sequence (Q96DC9 1-234): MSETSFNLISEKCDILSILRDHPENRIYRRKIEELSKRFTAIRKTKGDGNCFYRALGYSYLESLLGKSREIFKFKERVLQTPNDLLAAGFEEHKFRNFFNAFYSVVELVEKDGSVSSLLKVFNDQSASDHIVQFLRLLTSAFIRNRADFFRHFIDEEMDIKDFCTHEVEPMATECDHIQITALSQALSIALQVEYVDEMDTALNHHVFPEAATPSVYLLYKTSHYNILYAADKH

in vitro [1] = test: in vitro; parameters: species or system CCD841, HEK293; conditions: human, hb2 cells, read-out: HB-2 Cells Viability (%)
in vitro [2] = test: in vitro; parameters: species or system HB2, HEK293; conditions: human, ccd841 cells
in vitro [3] = test: in vitro; parameters: species or system HB2, CCD841; conditions: human, hek293 cells

T3 sequence (Q92831 whole entry, the tested form may be a part): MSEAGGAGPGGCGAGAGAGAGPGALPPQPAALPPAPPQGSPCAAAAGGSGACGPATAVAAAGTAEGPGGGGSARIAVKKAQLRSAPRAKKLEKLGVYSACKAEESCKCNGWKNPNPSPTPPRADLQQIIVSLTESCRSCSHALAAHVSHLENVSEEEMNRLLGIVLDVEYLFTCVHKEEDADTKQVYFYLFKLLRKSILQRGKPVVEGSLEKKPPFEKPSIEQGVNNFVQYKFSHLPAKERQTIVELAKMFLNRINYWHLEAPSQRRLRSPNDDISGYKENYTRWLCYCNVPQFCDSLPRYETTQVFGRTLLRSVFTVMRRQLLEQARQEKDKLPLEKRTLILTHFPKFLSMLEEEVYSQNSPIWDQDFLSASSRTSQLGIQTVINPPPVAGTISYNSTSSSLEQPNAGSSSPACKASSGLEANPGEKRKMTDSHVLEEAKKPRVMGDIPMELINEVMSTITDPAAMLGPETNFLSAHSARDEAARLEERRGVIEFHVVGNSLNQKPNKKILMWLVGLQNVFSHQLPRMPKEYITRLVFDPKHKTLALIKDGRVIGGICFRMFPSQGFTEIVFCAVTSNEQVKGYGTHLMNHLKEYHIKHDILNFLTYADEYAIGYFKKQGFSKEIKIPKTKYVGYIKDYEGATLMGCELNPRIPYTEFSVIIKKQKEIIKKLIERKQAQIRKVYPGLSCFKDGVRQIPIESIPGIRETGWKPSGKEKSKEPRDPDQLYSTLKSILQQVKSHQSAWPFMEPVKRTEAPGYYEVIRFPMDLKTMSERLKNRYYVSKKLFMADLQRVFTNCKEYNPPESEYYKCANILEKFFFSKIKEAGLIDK
T2 sequence (P02769 whole entry, the tested form may be a part): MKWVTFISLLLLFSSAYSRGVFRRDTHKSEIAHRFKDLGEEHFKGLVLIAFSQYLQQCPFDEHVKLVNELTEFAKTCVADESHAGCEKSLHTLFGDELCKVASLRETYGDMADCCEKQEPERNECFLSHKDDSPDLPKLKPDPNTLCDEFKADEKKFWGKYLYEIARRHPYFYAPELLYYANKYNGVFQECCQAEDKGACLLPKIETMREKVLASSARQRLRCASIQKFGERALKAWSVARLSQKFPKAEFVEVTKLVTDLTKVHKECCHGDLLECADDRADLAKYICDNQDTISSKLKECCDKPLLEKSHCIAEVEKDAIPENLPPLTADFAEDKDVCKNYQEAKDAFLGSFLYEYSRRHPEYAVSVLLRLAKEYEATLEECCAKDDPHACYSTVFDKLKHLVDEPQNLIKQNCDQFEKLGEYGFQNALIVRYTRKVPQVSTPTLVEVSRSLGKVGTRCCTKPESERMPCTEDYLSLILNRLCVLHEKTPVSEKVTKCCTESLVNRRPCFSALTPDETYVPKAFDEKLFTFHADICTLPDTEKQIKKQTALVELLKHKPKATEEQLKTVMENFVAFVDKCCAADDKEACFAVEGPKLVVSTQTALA
T4 sequence (P0C024 14-235): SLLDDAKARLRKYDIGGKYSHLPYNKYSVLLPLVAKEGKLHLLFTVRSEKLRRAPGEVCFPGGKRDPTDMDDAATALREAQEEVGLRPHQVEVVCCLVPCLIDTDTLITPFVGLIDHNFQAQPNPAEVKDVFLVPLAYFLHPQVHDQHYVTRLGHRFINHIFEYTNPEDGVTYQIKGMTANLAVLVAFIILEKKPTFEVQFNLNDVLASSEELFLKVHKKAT

Compound | NNMT (NNMT (hNNMT)) | BSA (BSA) | PCAF (PCAF) | NUDT7 (NUDT7) | OTUB2 (OTUB2 (OTUB2A)) | viability at 48 h, 10 µM (in vitro [1]) | viability at 48 h, 10 µM (in vitro [2]) | viability at 48 h, 10 µM (in vitro [3])
C=CC(=O)N1CC=C(C(F)(F)F)CC1 [PCM-0102685] | 0.17 | 0 | 0 | 0 | 0 | 103% | 105% | 98%
C=CC(=O)Nc1cc(CC(C)(C)C)nn1C [PCM-0102686] | 0.12 | 0 | 0 | 0.15 | 0 | 102% | 144% | 75.3%
C=CC(=O)N1CC(c2ccccc2)C2COCCC21 (centres unmarked) [PCM-0102687] | 0 | 0 | 0 | 0 | 0 | 103% | 105% | 114%
O=C(CCl)NC(=O)NC1CCCCC1 [PCM-0102692] | 0.76 | 0 | 0 | 0 | 0 | 48.7% | 70.7% | 62.3%
Cc1ccccc1CN(C)C(=O)CCl [PCM-0102707] | 0.13 | 0 | 0 | 0.13 | 0 | 7.9% | 57% | 11.6%
Cc1ccc(Cn2ccsc2=NC(=O)CCl)cc1 [PCM-0102708] | 0 | 0 | 0 | 0.09 | 0 | 36% | 3% | 7.9%
CN(CCC#N)C(=O)CCl [PCM-0102712] | 0.32 | 0 | 0 | 0 | 0 | 89.4% | 79.6% | 80.3%
CN(CC1CC1)C(=O)CCl [PCM-0102714] | 0 | 0 | 0 | 0 | 0 | 97% | 84.8% | 88.3%
C=CC(=O)N1CC(=O)NC2CCCCC21 (centres unmarked) [PCM-0102717] | 0 | 0 | 0 | 0 | 0 | 100% | 105% | 112%
C=CC(=O)N1Cc2ccc(S(=O)(=O)N(C)C)cc2C1 [PCM-0102718] | 0 | 0.3 | 0 | 0 | 0 | 97.4% | 99.7% | 73.6%
C=CC(=O)NCC1(O)CCCC(C(F)(F)F)C1 (centres unmarked) [PCM-0102720] | 0 | 0 | 0 | 0 | 0.08 | 93.2% | 107% | 106%
C=CC(=O)N1CCCC(Oc2ncccc2F)C1 (centres unmarked) [PCM-0102725] | 0.13 | 0 | 0 | 0 | 0.07 | 108% | 109% | 80.3%
C=CC(=O)N1CC(OC(=O)NC(C)C)C1 [PCM-0102728] | 0 | 0 | 0 | 0 | 0.18 | 99.7% | 108% | 110%
C=CC(=O)N1CCCn2c(cc3ccccc32)C1 [PCM-0102730] | 0 | 0 | 0 | 0 | 0.18 | 104% | 92.2% | 85%
C=CC(=O)NC1CCN(c2ccccc2C(F)(F)F)C1 (centres unmarked) [PCM-0102731] | 0 | 0 | 0 | 0 | 0 | 100% | 104% | 69.7%
C=CC(=O)N1CCc2ccccc21 [PCM-0102732] | 0.22 | 0 | 0 | 0 | 0 | 93.4% | 105% | 72.5%
CC(C)(C)c1nnc(NC(=O)CCl)s1 [PCM-0102736] | 0.13 | 0 | 0 | 0 | 0 | 80.1% | 67.5% | 81.5%
Cc1cccc(C(=O)NNC(=O)CCl)c1 [PCM-0102737] | 0 | 0 | 0 | 0 | 0.54 | 82.1% | 80% | 83.7%
CN(CC(=O)N1CCOCC1)C(=O)CCl [PCM-0102743] | 0 | 0 | 0 | 0 | 0 | 101% | 99% | 97.6%
Cc1ccc(S(N)(=O)=O)cc1NC(=O)CCl [PCM-0102744] | 0.17 | 0 | 0 | 0 | 0.1 | 54.4% | 61.4% | 19.7%
O=C(CCl)Nc1oncc1-c1ccccc1 [PCM-0102746] | 0.87 | 0 | 0 | 0 | 0.64 | 72.1% | 71.8% | 73.3%
CN(Cc1cccc(F)c1)C(=O)CCl [PCM-0102747] | 0 | 0 | 0 | 0 | 0 | 64.5% | 73.1% | 46.1%
O=C(CCl)N1CCOCC1 [PCM-0102749] | 0 | 0 | 0 | 0 | 0 | 98.7% | 109% | 97.6%
O=C(CCl)N1CCCCCC1 [PCM-0102751] | 0 | 0 | 0 | 0 | 0 | 99.5% | 85.6% | 73.7%
C=CC(=O)N(C)CC1CCn2ccnc2C1 (centres unmarked) [PCM-0102752] | 0 | 0 | 0 | 0 | 0 | 97.7% | 122% | 88.4%
O=C(CCl)NC(=O)NCc1cccs1 [PCM-0102753] | 0.55 | 0 | 0 | 0 | 0.23 | 61.5% | 71.1% | 55.8%
CC(NC(=O)CCl)C(=O)N(C)C (centres unmarked) [PCM-0102754] | 0 | 0 | 0 | 0 | 0 | 96% | 101% | 83.7%
O=C(CCl)N(c1ccccc1)C1CCS(=O)(=O)C1 (centres unmarked) [PCM-0102755] | 0 | 0 | 0 | 0.17 | 0 | 28.5% | 20.4% | 16.7%

— article PMC6556873, “Rapid Covalent-Probe Discovery by Electrophile-Fragment Screening” (Journal of the American Chemical Society, 2019)
